Measured values as given in patent US10513512B2, “Flavanone derivatives, and preparation method and use thereof” (Xuanwu Hospital of Capital Medical University, priority 2016, dated 2019).

Key:
[1] = target: dopamine D2 receptor (DRD2) (Homo sapiens (Human), UniProt P14416); test: Dopamine D2 receptor antagonism, Fluo-4 calcium fluorescence in HEK293 cells stably expressing DRD2/Gα16; format: cell-based; settings: 50 nM Dopamine as agonist, read-out: IC50 for inhibiting dopamine D2 receptor
Excerpt: Objective: positive symptoms (hallucination, delusion, etc.) in patients with schizophrenia may be associated with dopamine (DA) hyperfunction in subcortical limbic system, and antipsychotic drugs, which block Dopamine D2 Receptor (DRD2), can effectively control positive symptoms of schizophrenia. By establishing a cell line co-transfected with DRD2 and Gα16, the activated DRD2 can activate Gα16 protein, thereby activating phospholipase C (PLC) to produce inositol 1,4,5-triphosphate (IP3) and diacylglycerol (DAG), wherein IP3 can bind to the IP3 receptor on endoplasmic reticulum and mitochondria, resulting in intracellular calcium release. Therefore, the determination of a change in intracellular calcium can be used as a method for detecting the activated state of DRD2.
Fluo-4/AM was a calcium fluorescent probe indicator for determining calcium ions. In this experiment, a Fluo-4 fluorescence method was used to determine the level of activated Gα protein by measuring the fluorescence intensity excited by intracellular calcium ions. If a compound could activate DRD2, the calcium influx was enhanced; on the contrary, if a compound could antagonize DRD2, the calcium influx was reduced.
Methods: HEK293 cells stably expressing DRD2/Gα16 (a human embryonic kidney cell line, derived from Shanghai Institute of Materia Medica, Chinese Academy of Sciences) were seeded in a 96-well plate (the culture solution was 90% DMEM+10% fetal bovine serum), and incubated overnight. The culture solution was pipetted off, and a freshly prepared dye Fluo-4/AM was added. The cells were incubated in a 37° C. incubator for 40 min. The dye was completely pipetted off. After the cells were washed with a freshly prepared calcium buffer, a calcium buffer (50 μl) dissolved with a test drug was added. FlexStation II instrument was used in the determination. A calcium buffer (25 μl) dissolved with a known agonist was added automatically by the instrument at the fifteenth second, and the fluorescence value at 525 nm (an excitation wavelength of 485 nm) was finally read. […] IC50 value was calculated by GraphPad Prism.

[2] = test system: MK-801-induced hyperlocomotion schizophrenia model in mice; test: MK-801-induced hyperlocomotion schizophrenia model in mice (open-field test); format: in vivo, mouse; settings: within 210 min; for Distance of central district activity / Total distance traveled: 50 mg/kg intragastric, Balb/c mice, MK-801 0.6 mg/kg i.p., Mean ± SE, n = 10; for distance of center square activity, effect in words / total distance of spontaneous activity, effect in words: intragastrical administration, MK-801 model mice
Excerpt: Objective: Glutamatergic hypofunction is one of the pathogenesis for mental disorders such as schizophrenia. N-methyl-D-aspartic acid (NMDA) receptor antagonists can induce schizophrenia-like effects. In this experiment, a hyperlocomotion schizophrenia model in mice induced by dizocilpine (MK-801), a NMDA receptor antagonist, was used to investigate the in vivo activity of the compounds P6, P5, P4 and P7 of the invention.
Methods: SPF grade inbred Balb/c male mice with no special pathogens (purchased from Laboratory Animal Center of Capital Medical University), weighed (20±2) g, were randomly divided into a control group, a model group, and drug groups. The mice were adapted to the rearing environment for one week, and then were intragastrically administered for 3 days, wherein the control group and model group were intragastrically administered with physiological saline, and on Day 4, the mice were administered prior to test, and then were tested for 60 min in an Open-Field Activity Monitoring System. The control group was then intraperitoneally injected with physiological saline, the model group and the drug groups were intraperitoneally injected with a solution (0.6 mg/kg) of a NMDA receptor antagonist dizocilpine (MK-801), and the mice of these groups were further monitored for spontaneous activity and center square activity within 210 minutes, wherein spontaneous activity was used to reflect the positive symptom of rapid motion in schizophrenia, and center square activity was used to evaluate the anxiety status of schizophrenia.

[3] = test system: myelin basic protein (MBP) in the frontal cortex of Cuprizone model mice; test: Demyelination in Cuprizone mouse model: MBP content by Western blot; format: in vivo; settings: 25 and 50 mg/kg groups, FIG. 9
Excerpt: Objectiv: pathological changes in white matter and demyelination are the important pathogenesis for many central nervous system diseases and mental disorders. Cuprizone can cause demyelination and pathological changes in white matter. Myelin basic protein (MBP) is a marker protein for myelination of axons, and is the main component of myelin sheath. In this experiment, Western Blot method was used to study the effects of the compounds of the invention on the MBP content and demyelination in the brain of Cuprizone model mice. Methods: Cuprizone mouse model establishment and administration method were the same as those described in Experimental example 4. After ethological tests were performed, the mice were anaesthetized by intraperitoneal injection of 10% chloral hydrate. The brains were harvested and stored at −80° C. Western blot assay: brain tissue was lysed with lysate to extract protein, and the protein concentration was determined. SDS-PAGE gel electrophoresis was performed, the protein was transferred onto a membrane, and the membrane was blocked. The protein was incubated with an anti-MBP antibody (a primary antibody) overnight at 4° C. in a refrigerator. […] Signal intensity for each protein band was analyzed using FluorChem 8900 gray-scale analysis software.

Cuprizone model mice = test: Ethological change in Cuprizone model mice (Y-maze and open-field behavior test); format: in vivo, mouse; settings: intragastrical administration; for number of arm entries in Y-maze, effect in words / spontaneous alternation in Y-maze, effect in words: within 8 min; for number of arm entries in Y-maze, effect in words: FIG. 6; for spontaneous alternation in Y-maze, effect in words: FIG. 7; for total distance of spontaneous activity in open-field test, effect in words: within 10 min, FIG. 8
Excerpt: Objective: neuroinflammation, pathological changes in white matter, and demyelination are the important pathogenesis for many central nervous system diseases. Cuprizone (dicyclohexanoneoxaly dihydrazone) can cause changes such as inflammation, demyelination, axonal injury, and cognitive function impairment. In this experiment, Y-maze and open-field behavior test were used to study the effects of the compounds of the invention on memory function and motion in a Cuprizone mouse model.
Methods: SPF grade inbred C57BL/6 male mice, weighed (20±2) g, were randomly divided into a control group, a model group, and drug groups. The mice were adapted to the rearing environment for 3 days. Then, the control group was fed with a normal feed, and the other groups were fed with a feed containing 0.2% Cuprizone for model establishment. During model establishment, the mice in each group were intragastrically administered with a corresponding dose of drug, and were reared for 5 weeks. The mice were then subjected to the Y-maze and open field behavior test, wherein the number of arm entries in Y-maze was used to reflect the motion of mice; the spontaneous alternation in Y maze was used to reflect the working memory of mice; and the spontaneous activity in open-field behavior test was used to reflect the motion of mice.

[4] = test system: Iba-1-labeled microglial cells in the brain of Cuprizone model mice; test: Microglial cell activation in Cuprizone mouse model: Iba-1 immunohistochemical staining; format: in vivo; settings: 25, 50 mg/kg, FIG. 10
Excerpt: Objective: microglial activation and neuroinflammation are the important pathogenesis for many central nervous system diseases. Iba-1 could specifically label microglial cells. In this experiment, immunohistochemical method was used to study the effects of the compounds of the invention on Iba-1-labeled microglial cells in the brain of Cuprizone model mice.
Methods: Cuprizone mouse model establishment and administration method were the same as those described in Experimental example 4. After ethological tests were performed, the mice were anaesthetized by intraperitoneal injection of 10% chloral hydrate. After perfusion, brain tissue was taken and fixed with […] paraformaldehyde, and then frozen and sliced. Immunohistochemical staining: the frozen sections were inactivated with 3% H2O2 for 10 min and rinsed with PBS; the tissues were blocked with 10% serum and incubated at 37° C. for 1 h. Serum was washed off and a primary antibody (an anti-Iba-1 antibody) was added dropwise. The resultant mixture was kept at 4° C. overnight. After rinsing with PBST, a biotin-conjugated goat anti-rabbit IgG antibody (a secondary antibody) was added dropwise, and incubated at 37° C. for 2 hrs. After rinsing with PBST, a horseradish peroxidase-conjugated streptavidin (a third antibody) was added dropwise, and incubated at 37° C. for 2 hrs. […] Iba-1 positive cells were observed under microscope, and counted.

dopamine D2 receptor (DRD2), sequence (P14416 whole entry): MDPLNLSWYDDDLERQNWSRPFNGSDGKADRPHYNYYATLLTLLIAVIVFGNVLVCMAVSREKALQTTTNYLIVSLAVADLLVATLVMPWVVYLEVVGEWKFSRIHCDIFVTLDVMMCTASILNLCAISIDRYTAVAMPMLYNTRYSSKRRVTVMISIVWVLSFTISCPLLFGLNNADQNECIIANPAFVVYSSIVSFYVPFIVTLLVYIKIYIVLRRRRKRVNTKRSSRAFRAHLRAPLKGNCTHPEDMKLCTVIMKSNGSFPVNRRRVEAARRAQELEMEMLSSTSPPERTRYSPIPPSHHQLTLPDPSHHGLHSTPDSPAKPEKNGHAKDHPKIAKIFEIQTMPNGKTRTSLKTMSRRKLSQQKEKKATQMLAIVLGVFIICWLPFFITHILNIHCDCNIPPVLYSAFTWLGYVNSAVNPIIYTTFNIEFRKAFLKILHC

SMILES	IC50 [1] [µM]	Distance of central district activity [2] [cm]	Total distance traveled [2] [cm]	MBP content in frontal cortex, effect in words [3]	distance of center square activity, effect in words [2]	total distance of spontaneous activity, effect in words [2]	number of arm entries in Y-maze, effect in words (Cuprizone model mice)	spontaneous alternation in Y-maze, effect in words (Cuprizone model mice)	total distance of spontaneous activity in open-field test, effect in words (Cuprizone model mice)	number of Iba-1-labeled microglial cells in the brain, effect in words [4]
COc1ccc(C2CC(=O)c3c(O)cc(OCCCCN4CCN(c5ccccc5OC)CC4)cc3O2)cc1 (stereo not drawn) [Compound P1, 5-hydroxy-2-(4-methoxyphenyl)-7-(4-(4-(2-methoxyphenyl)-piperazin-1-yl)-butoxy)-chroman-4-one]	0.205									
COc1ccccc1N1CCN(CCCCOc2cc(O)c3c(c2)OC(c2ccc(C)cc2)CC3=O)CC1 (stereo not drawn) [Compound P2, 5-hydroxy-2-(4-methylphenyl)-7-(4-(4-(2-methoxyphenyl)-piperazin-1-yl)-butoxy)-chroman-4-one]	0.346									
COc1ccccc1N1CCN(CCCCOc2cc(O)c3c(c2)OC(c2ccc(F)cc2)CC3=O)CC1 (stereo not drawn) [Compound P3, 5-hydroxy-2-(4-fluorophenyl)-7-(4-(4-(2-methoxyphenyl)-piperazin-1-yl)-butoxy)-chroman-4-one]	0.0573									
O=C1CC(c2ccc(F)cc2)Oc2cc(OCCCCN3CCC(c4noc5cc(F)ccc45)CC3)cc(O)c21 (stereo not drawn) [Compound P4, 5-hydroxy-2-(4-fluorophenyl)-7-(4-(4-(6-fluoro-benzo[d]isoxazol-3-yl)-piperidin-1-yI)-butoxy)-chroman-4-one]	0.0877	11098 ± 1422	39222 ± 4300	could significantly enhance the MBP content						
COc1ccc(C2CC(=O)c3c(O)cc(OCCCCN4CCC(c5noc6cc(F)ccc56)CC4)cc3O2)cc1 (stereo not drawn) [Compound P5, 5-hydroxy-2-(4-methoxyphenyl)-7-(4-(4-(6-fluoro-benzo[d]isoxazol-3-yl)-piperidin-1-yl)-butoxy)-chroman-4-one]	0.0513	9211 ± 1845	30914 ± 3351	could significantly enhance the MBP content	could shorten the total distance of spontaneous activity and the distance of center square activity	could shorten the total distance of spontaneous activity	could reduce the number of arm entries	enhance the spontaneous alternation	could shorten the total distance of spontaneous activity	
COc1ccc(C2CC(=O)c3c(O)cc(OCCCN4CCN(c5ccccc5OC)CC4)cc3O2)cc1 (stereo not drawn) [Compound P6, 5-hydroxy-2-(4-methoxyphenyl)-7-(4-(4-(2-methoxyphenyl)-piperazin-1-yl)-propoxy)-chroman-4-one]	0.22	10181 ± 2110	46922 ± 2233		could shorten the total distance of spontaneous activity and the distance of center square activity	could shorten the total distance of spontaneous activity	could reduce the number of arm entries	enhance the spontaneous alternation	could shorten the total distance of spontaneous activity	could significantly reduce the number of microglial cells
COc1ccc(C2CC(=O)c3c(O)cc(OCCCN4CCC(c5noc6cc(F)ccc56)CC4)cc3O2)cc1 (stereo not drawn) [Compound P7, 5-hydroxy-2-(4-methoxyphenyl)-7-(4-(4-(6-fluoro-benzo[d]isoxazol-3-yl)-piperidin-1-yl)-propoxy)-chroman-4-one]	0.116	7913 ± 1666	37051 ± 4308		could shorten the total distance of spontaneous activity and the distance of center square activity	could shorten the total distance of spontaneous activity				
